Read-outs that look alike come from different tables or passages of the source.

Experiment [1] deals with splenic pDCs. Put plainly: Flow cytometry of splenic pDCs for ES and TSP-1 after 24 hours with neuropeptide receptor agonists. The class given is cell-based, C57BL/6 mice. (In flow cytometry, cells or beads pass a laser one at a time.)
For experiment [2], the system named is suture induced CNV. Put plainly: Suture induced model of corneal neovascularization (CNV), CD31 whole mount quantification. The class given is in vivo, C57BL/6 mice.
Experiment [3] concerns human corneal pDCs. In words: Flow cytometry of human corneal pDCs incubated with THIQ for angiostatic proteins. Format: cell-based. The conditions noted are these: THIQ 10 ug/mL. From the text: Phenotypically murine and human pDCs express divergent sets of surface markers as reviewed by Rogers et al. (Rogers et al., Am. J. Transplant. 13:1125-1133, 2013). Human pDCs express the pan leukocyte marker CD45, BDCA2 (CD303), and BDCA4 (neuropilin-1). To examine the possibility that murine but not human pDCs express angiostatic molecules, human corneal eye bank research samples for ES, PF-4, TSP-1 and TIMP3 were examined. Human corneal tissues were obtained and processed by […] Eyebank (Ann Arbor, Mich., USA) according to a standardized eye banking protocols, and procedures. […] The exclusion criterion was tissue from donors with corneal neovascularization, or a history of diabetes, cancer, or keratitis. […] Pharmacol. Toxicol. 101:416-420, 2007; Sebhat et al., J. Med. Chem. 45:4589-4593, 2002) was utilized. The ability of THIQ (10 ug/mL) to impact murine and human pDCs was tested.

Experiment [4] concerns CNV in C57BL/6 to BALB/c corneal transplants. Put plainly: High-risk corneal transplant model (C57BL/6 to BALB/c), CNV quantified by CD31 staining. The class given is in vivo, BALB/c mice. The conditions noted are these: subconjunctival THIQ (10 ug/mL) every other day for 14 days, versus saline.
Experiment [5] concerns phospho-PKCδ/θ (Ser643/676). Put plainly: Immunoblot of PKC isoform phosphorylation in FACS-sorted pDCs treated with THIQ. The class given is cell-based, murine. The procedure:
Previous studies have shown the MC4 receptor to couple to all three major classes of G proteins, Gs, Gi/o, and Gq depending on cell type (Tao, Endocr. Rev. 31:506-543, 2010). To test pDC MC4 signaling, FACS-sorted pDCs were incubated with THIQ (10 ug/mL) for 5, 15, or 30 minutes. Protein kinase C (PKC) isoform phosphorylation was examined by phospho-PKC specific antibodies and immunoblotting. Specifically, Splenic pDCs were FACs sorted as previously described. Five hundred thousand pDCs were used per condition and lysed directly with chilled 1× radioimmunoprecipitation assay (RIPA) buffer or 1× Laemmli Buffer on ice. Samples were diluted in NuPAGE sample loading buffer (ThermoFisher) and 1× NuPAGE Sample Reducing Agent (ThermoFisher) and heated to 70° C. for 10 minutes. Protein lysates were resolved on a 10% Bis-Tris SDS gel (ThermoFisher) and transferred to a nitrocellulose membrane (ThermoFisher). Membranes were blocked with odyssey blocking buffer (Licor) for one hour and incubated with protein specific primary antibodies (1:100 or 1:200) overnight at 4° C. Membranes were washed with blocking buffer and secondary antibodies were diluted (1:5000 or 1:15000) and incubated with membranes for 60 minutes at room temperature. Membranes were imaged using an Odyssey® CLx Imaging System (Licor). Image analysis was done using Image Studio software. Protein sampling kits for PKC, and NF-κB signaling antibodies were purchased from Cell signaling (Phospho-PKC Antibody Sampler Kit #9921 and NF-κB Pathway Sampler Kit #9936).
(Immunoblotting shows a protein as a band on a membrane.)

The subject of experiment [6] is NF-kB. In words: Immunofluorescence of NF-kB (RelB, c-Rel) nuclear localization in sorted pDCs treated with THIQ. The class given is cell-based, murine. The conditions noted are these: THIQ 10 ug/mL, 24 hours, compared to control pDCs.
The test system of experiment [7] is murine pDCs. Put plainly: Flow cytometry of murine pDCs incubated with THIQ for angiostatic proteins. The conditions noted are these: THIQ 10 ug/mL. Format: cell-based.

Regarding `COC(=O)[C@H](CCCN=C(N)N)NC(=O)CCCc1c(-c2ccccc2)[nH]c2c(F)cc(F)cc12` [L-803,087], in experiment [1] (24 hours, compared to baseline), the “pDC ES protein expression” value is reported as “mixed impact” and the “pDC TSP-1 protein expression” value is reported as “mixed impact”.

Take `O=C(N[C@H](Cc1ccc(Cl)cc1)C(=O)N1CCC(Cn2cncn2)(C2CCCCC2)CC1)[C@H]1Cc2ccccc2CN1` [THIQ, (3R)—N-[(2R)-3-(4-chlorophenyl)-1-[4-cyclohexyl-4-(1,2,4-triazol-1-ylmethyl)piperidin-1-yl]-1-oxopropan-2-yl]-1,2,3,4-tetrahydroisoquinoline-3-carboxamide]: the “Reduction of suture induced CNV” value in experiment [2] (subconjunctival injection of THIQ (10 ug/mL) every other day for 14 days, versus saline) stood at 46%. In addition, in experiment [2] (sutured C57BL/6, injected every other day for two weeks, THIQ together with siRNA against MC4), the “CNV, MC4 siRNA with THIQ versus control siRNA” value was “No statistical difference”. Further, in experiment [3], the “ES mean fluorescence intensity (MFI)” value was “increased”, the “PF4 mean fluorescence intensity (MFI)” value is on record as “increased”, the “TIMP3 mean fluorescence intensity (MFI)” value is “increased” and the “TSP-1 mean fluorescence intensity (MFI)” value is reported as “increased”. Also, the “CNV in corneal transplants” value in experiment [4] was “reduced”. Further, in experiment [5] (THIQ 10 ug/mL, 5, 15 or 30 minutes), the “Phosphorylation of additional PKC isoforms” value is “not observed”. In addition, the “PKCδ/θ (Ser643/676) phosphorylation” value in experiment [5] (THIQ 10 ug/mL, 15 minutes, normalized to actin) was “decreased”. Further, the “PKCδ/θ (Ser643/676) phosphorylation” value in experiment [5] (THIQ 10 ug/mL, 30 minutes, normalized to actin) is recorded as “decreased”. Besides, the “phospho-PKCδ/θ (Ser643/676) phosphorylation” value in experiment [5] (THIQ 10 ug/mL, five minutes, normalized to actin) is “Increased”. Moreover, in experiment [6], the RelB nuclear localization result was “Increased” and the c-Rel nuclear localization result is listed as “not”. Moreover, in experiment [7], the “ES mean fluorescence intensity (MFI)” value was “increased”, the “PF4 mean fluorescence intensity (MFI)” value is “increased”, the “TIMP3 mean fluorescence intensity (MFI)” value was “increased” and the “TSP-1 mean fluorescence intensity (MFI)” value is listed as “increased”.

For the molecule Dynorphin A, in experiment [1], the “pDC ES protein expression” value is “increased” and the “pDC TSP-1 protein expression” value is reported as “increased”.

The values above are taken from patent US20230077811A1, “ACTIVATION OF NEUROPEPTIDE RECEPTORS ON PLASMACYTOID DENDRITIC CELLS TO TREAT OR PREVENT OCULAR DISEASES ASSOCIATED WITH NEOVASCULARIZATION AND INFLAMMATION” (Tufts Medical Center, Inc., priority 2020, published 2023).
